According to patent US8916516B2, “Treatment of fungal and/or protist infections” (AI2 Limited, priority 2005, dated 2014):
No end group written: not given here.

Legend:
Format in all cases: cell-based
Fusarium solani 1 (FS1) = experiment: Antifungal MIC (Example 4); conditions: Fusarium solani 1; peptides; Tables 4 and 5
Description: (§1) The inventor expanded the work conducted in Example 1 by testing an expanded library of peptides derived from either apolipoprotein B or apolipoprotein E in order to further evaluate polypeptides in accordance with the invention. These experiments were conducted using the following fungal species:
(§2) FS1-FS4 were obtained from Bristol PHLS (British Public Health Laboratory Service UK). Aspergillus fumigatus 293 is publicly available as culture collection strain NCPF7367 (National Collection of Pathogenic Fungi Public Health Laboratory, Mycological Reference Laboratory Myrtle Road, Kingsdown, Bristol BS2 8EL) The Candida albicans was a clinical isolate obtained by standard means.
(§3) The methods used to determine, the IC50 values for each peptide were as described in the Example 1.

[1] = system: Aspergillus fumigatus AF293 (NCPF7367); experiment: microbe, parasite or virus in culture; conditions: Aspergillus fumigatus 293; peptides; Tables 4 and 5
Description: (§4) Four compounds were supplied as an aqueous solution, 400 μM. Serial dilutions of each test peptide were prepared in addition to a control, which was a conventional antifungal drug, Amphoteracin B. Amphteracin B is obtained from Invitrogen or Melford laboratories.
(§5) Initial testing of the peptides was carried out against the following organisms: • 1) Aspergillus fumigatus AF293 (culture collection strain NCPF7367) • 2) Candida albicans 6862 (clinical isolate) • 3) Fusarium spp 5889 (clinical isolate) • 4) Fusarium spp 6507 (clinical isolate) • 5) Aspergillus terreus (clinical isolate) • 6) Aspergillus niger (clinical isolate) • 7) Staphylococcus aureus (Oxford strain, which is a standard reference strain used in MIC testing)
The bacterium S. aureus was tested with each of the peptides as a control. A suspension of each organism in an appropriate growth medium was added to the, dilutions of the peptides in order to give concentration ranges of 40 μM to 0.04 μM for each of the peptides, and 64-0.025 μg/ml for amphotericin B. Fungal strains were tested in RPMI media. RPMI is standard Roswell Park Memorial Institute medium (Morton, H. C., (1970) A survey of Commercially Available Tissue Culture Media. In Vitro 6: 89-108).
The final inoculum for S. aureus was 5×10^4 cfu/ml. The final inoculum for C. albicans was 2×10^3 cfu/ml. The final inoculum for Aspergillus fumigatus and for Fusarium spp was 2×10^4 cfu/ml.
(§6) Candida and S. aureus plates were read after 24 hrs incubation and the Aspergillus and Fusarium strains read after 48 hrs. The MIC was taken as the lowest drug or compound concentration that caused >80% reduction in growth compared with a drug free control.
Aspergillus fumigatus 293 (AF); and
FS1-FS4 were obtained from Bristol PHLS (British Public Health Laboratory Service UK). Aspergillus fumigatus 293 is publicly available as culture collection strain NCPF7367 (National Collection of Pathogenic Fungi Public Health Laboratory, Mycological Reference Laboratory Myrtle Road, Kingsdown, Bristol BS2 8EL) The Candida albicans was a clinical isolate obtained by standard means. […]

Fusarium solani 4 (FS4) = experiment: Antifungal MIC (Example 4); conditions: Fusarium solani 4; peptides; Tables 4 and 5
Description: as §1, §2, §3

Fusarium solani 3 (FS3) = experiment: Antifungal MIC (Example 4); conditions: Fusarium solani 3; peptides; Tables 4 and 5
Description: as §1, §2, §3

fungi = conditions: overall statement on the fungi tested
Description: as §4, §5
The bacterium S. aureus was tested with each of the peptides as a control. […] RPMI is standard Roswell Park Memorial Institute medium (Morton, H. C., (1970) A survey of Commercially Available Tissue Culture Media. In Vitro 6: 89-108).
as §6, §3

[2] = system: Candida albicans (CA), clinical isolate; experiment: Antifungal MIC (Example 4); conditions: peptides, Tables 4 and 5
Description: as §1, §2, §3

Fusarium solani 2 (FS2) = experiment: Antifungal MIC (Example 4); conditions: Fusarium solani 2; peptides; Tables 4 and 5
Description: as §1, §2, §3

[3] = system: Acanthamoeba polyphaga (trophozoites), Ros strain; experiment: Microtitre plate assay against Acanthamoeba trophozoites (Example 2); conditions: lowest concentration killing the trophozoite challenge
Source text: The test compounds were screened against the trophozoites of clinical isolates of Acanthamoeba spp. using a microtitre plate assay procedure. The organisms were Acanthamoeba polyphaga. (see for details on the strain and methodology used: Hughes, R. & Kilvington, S. (2001). A comparison of hydrogen peroxide contact lens disinfection systems and solutions against Acanthamoeba polyphaga. Antimicrob. Agents Chemother. 45: 2038-2043.) Acanthamoeba polyphaga Ros strain was used throughout the study. The strain was originally isolated from an unpublished case of acanthamoeba keratitis in the United Kingdom in 1994.
Use of the microliter plate assay enabled the determination of the minimum amoebacidal trophozoite concentration (MATC), which is the minimum amoebacidal trophozoite concentration (μg/ml)=lowest concentration killing the trophozoite challenge […] and also the minimum inhibitory trophozoite concentration (MITC), which is the minimum inhibitory trophozoite concentration (μg/ml)=lowest concentration stopping the trophozoites from dividing or killing about 50% of population. The values may then be used to select drug concentrations for use in time-kill experiments to study the kinetics of Acanthamoeba killing.

Row | Substance | MIC values (>80% reduction) FS1 (Fusarium solani 1 (FS1)) [µM] | MIC values (>80% reduction) AF [1] [µM] | MIC values (>80% reduction) FS4 (Fusarium solani 4 (FS4)) [µM] | MIC values (>80% reduction) FS3 (Fusarium solani 3 (FS3)) [µM] | antifungal activity (in words) (fungi) | MIC values (>80% reduction) CA [2] [µM] | MIC values (>80% reduction) FS2 (Fusarium solani 2 (FS2)) [µM] | MATC = minimum amoebacidal trophozoite concentration [3] [µM]
1 | CRKCRKRCCCRKCRKRCC (Artficial polypeptide designated MU 12) [MU_12] | 2.5 | 40 | 5 | 10 | particularly effective antifungal peptides | >40 | 5 | 
2 | FRKFRKRFFFRKFRKRFF (Artficial polypeptide designated MU7) [MU_7] | 5 | >40 | 20 | 5 | particularly effective antifungal peptides | >40 | 2.5 | 93.1
3 | KRKKRKRKKKRKKRKRKK (Artificial polypeptide designated MU 18) [MU_18, 85] | 2.5 | >40 | >40 | 2.5 | particularly effective antifungal peptides | >40 | 10 | 
4 | RRKRRKRRRRRKRRKRRR (Artificial polypeptide designated MU 16) [MU_16] | 1.25 | 40 | 2.5 | 1.25 | particularly effective antifungal peptides | 10 | 1.25 | 
5 | RRWRKRWRKWRWRKRWRK (Artificial polypeptide designated MU 28) [MU_28, 42] | 0.6 | 10 | 2.5 | 1.25 | good antifungal activity | >40 | 0.6 | 
6 | WRKWRKRWW (Artificial polypeptide designated MU 45) [MU_45, 87; monomer on which MU 4 is based] | 40 | >40 | >40 | 40 | ineffective | >40 | 40 | 
7 | WRWKKKWRKWRWKKKWRK (Artificial polypeptide designated MU 26) [MU_26, 89] | 5 | >40 | 10 | 5 | reduced activity | >40 | 5 | 
8 | WRWRKRWRKWRWRKRWRK (Artificial polypeptide designated MU 27) [MU_27] | 0.6 | 5 | 1.25 | 0.6 | good antifungal activity | 20 | 0.6 | 
9 | WRWRRRWRKWRWRRRWRK (Artificial polypeptide designated MU 25) [MU_25, 88] | 5 | 10 | 20 | 10 | reduced activity | >40 | 5 | 
10 | YRKYRKRYYYRKYRKRYY (Artificial polypeptide designated GIN 41 or MU6) [MU_6] | 10 | >40 | 20 | 5 | particularly effective antifungal peptides | >40 | 5 | 
11 | modified apoB3359-3367: SEQ ID No. 7; modified form of the apoB3359-3367 9-mer, sequence shown only in Table 1 drawing (LRTRKRGRK; not fully specified) [reference compound] |  |  |  |  | no detectable antifungal activity |  |  | 
